Assays:
[1] = target: T1, Lipolase (Thermomyces lanuginosus, UniProt O59952); assay: storage stability of lipase (Lipolase activity, pNitrophenol-valerate substrate) in liquid formulations at 37° C.; type: biochemical, Thermomyces lanuginosa; settings: Lipolase 0.4 wt %, storage at 37° C.
T1 construct: purchased Sigma-Aldrich
T1 sequence (O59952 23-291): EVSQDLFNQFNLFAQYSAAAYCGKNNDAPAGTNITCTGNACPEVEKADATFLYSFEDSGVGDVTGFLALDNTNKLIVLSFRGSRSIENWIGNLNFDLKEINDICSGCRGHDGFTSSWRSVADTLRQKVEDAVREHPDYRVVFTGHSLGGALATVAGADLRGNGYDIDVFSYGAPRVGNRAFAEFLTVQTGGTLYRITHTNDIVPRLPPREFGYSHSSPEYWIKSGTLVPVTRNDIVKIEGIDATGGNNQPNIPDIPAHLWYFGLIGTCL
Description: (§1) The storage stability of Lipase and Protease in water was assessed at 37° C.
(§2) Base test formulations were manufactured by making base formulations I to VI by mixing the components according to Table 1.
(§3) The respective salt (component (a)) or comparative compound was added, if applicable, to the respective base formulation in amounts as indicated in Table 1.
(§4) The amount of enzyme as provided in Table 1 refers to active protein. Either lipase or protease was added, depending on which enzyme activity was measured.
(§5) Lipolase® 100 L (CAS-No. 9001-62-1, EC-No. 232-619-9) was purchased from Sigma-Aldrich. Savinase® 16.0 L (CAS-No. 9014-01-1, EC-No. 232-752-2) was purchased from Sigma-Aldrich.
Lipolase activity at certain points in time as indicated in Table 2 was be determined by employing pNitrophenol-valerate (2.4 mM pNP-C5 in 100 mM Tris pH 8.0, 0.01% Triton X100) as a substrate. The absorption was measured at 20° C. every 30 seconds over 5 minutes at 405 nm. The slope (absorbance increase at 405 nm per minute) of the time dependent absorption-curve is directly proportional to the activity of the lipase.
The lipolytic activity values provided in Table 2 were calculated referring to the 100% value determined in the reference formulation at the time 0.
(§6) The nomenclature of formulations is as follows: the Roman number before the full stop characterizes the base formulation, the Arabian number the type of salt (A.# inventive salt (component (a)); C-(A.#) comparative compound). Zero (“0”): no salt, but diethylene glycol.

[2] = target: T2, Savinase (Lederbergia lenta, UniProt P29600); assay: storage stability of protease (Savinase activity, Suc-AAPF-pNA substrate) in liquid formulations at 37° C.; type: biochemical; settings: Savinase 16.0 L 0.5 wt %, storage at 37° C.
T2 construct: purchased Sigma-Aldrich
T2 sequence (P29600 1-269): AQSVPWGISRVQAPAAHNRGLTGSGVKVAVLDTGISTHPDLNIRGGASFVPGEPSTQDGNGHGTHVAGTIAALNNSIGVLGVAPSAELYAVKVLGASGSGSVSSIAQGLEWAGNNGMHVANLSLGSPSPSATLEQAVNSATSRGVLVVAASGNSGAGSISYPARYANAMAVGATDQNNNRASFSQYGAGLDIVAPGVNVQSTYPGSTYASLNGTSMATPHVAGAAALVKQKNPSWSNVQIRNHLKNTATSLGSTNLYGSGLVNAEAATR
Description: as §1, §2, §3, §4, §5
Savinase activity at certain points in time as indicated in Table 3 was be determined by employing Succinyl-Ala-Ala-Pro-Phe-p-nitroanilide (Suc-AAPF-pNA, short AAPF) as substrate. pNA is cleaved from the substrate molecule by proteolytic cleavage, resulting in release of yellow color of free pNA which was determined by measuring OD405. Measurement were done at 20° C.
The proteolytic activity values provided in Table 3 were calculated referring to the 100% value determined in the reference formulation at the time 0.
as §6

[3] = base formulation I., component (a) 2.5 wt %, 1 d
[4] = base formulation I., component (a) 2.5 wt %, 3 d
[5] = base formulation I., component (a) 2.5 wt %, 6 d
[6] = base formulation I., component (a) 2.5 wt %, 10 d
[7] = base formulation I., component (a) 2.5 wt %, 15 d
[8] = base formulation I., component (a) 2.5 wt %, 20 d
[9] = base formulation I., component (a) 2.5 wt %, 25 d
[10] = base formulation I., component (a) 2.5 wt %, 30 d
[11] = base formulation I., component (a) 2.5 wt %, T0
[12] = base formulation IV., component (a) 4.0 wt %, 1 d
[13] = base formulation IV., component (a) 4.0 wt %, 3 d
[14] = base formulation IV., component (a) 4.0 wt %, 6 d
[15] = base formulation IV., component (a) 4.0 wt %, 10 d
[16] = base formulation IV., component (a) 4.0 wt %, 15 d
[17] = base formulation IV., component (a) 4.0 wt %, 20 d
[18] = base formulation IV., component (a) 4.0 wt %, 25 d
[19] = base formulation IV., component (a) 4.0 wt %, 30 d
[20] = base formulation IV., component (a) 4.0 wt %, T0
[21] = base formulation III., component (a) 2.5 wt %, 1 d
[22] = base formulation III., component (a) 2.5 wt %, 3 d
[23] = base formulation III., component (a) 2.5 wt %, 6 d
[24] = base formulation III., component (a) 2.5 wt %, 10 d
[25] = base formulation III., component (a) 2.5 wt %, 15 d
[26] = base formulation III., component (a) 2.5 wt %, 20 d
[27] = base formulation III., component (a) 2.5 wt %, 25 d
[28] = base formulation III., component (a) 2.5 wt %, 30 d
[29] = base formulation III., component (a) 2.5 wt %, T0

SMILES: C[N+](C)(C)CCO.C[N+](C)(C)CCO.C[N+](C)(C)CCO.O=C([O-])CC(O)(CC(=O)[O-])C(=O)[O-] [C-(A.18)]
- lipase activity [1, 3]: 91%
- lipase activity [1, 4]: 84%
- lipase activity [1, 5]: 72%
- lipase activity [1, 6]: 55%
- lipase activity [1, 7]: 45%
- lipase activity [1, 8]: 39%
- lipase activity [1, 9]: 32%
- lipase activity [1, 10]: 29%
- lipase activity [1, 11]: 98%
- lipase activity [1, 12]: 91%
- lipase activity [1, 13]: 84%
- lipase activity [1, 14]: 72%
- lipase activity [1, 15]: 58%
- lipase activity [1, 16]: 49%
- lipase activity [1, 17]: 46%
- lipase activity [1, 18]: 39%
- lipase activity [1, 19]: 35%
- lipase activity [1, 20]: 95%
- lipase activity ([1]; base formulation VI., component (a) 4.0 wt %, 1 d): 90%
- lipase activity ([1]; base formulation VI., component (a) 4.0 wt %, 3 d): 83%
- lipase activity ([1]; base formulation VI., component (a) 4.0 wt %, 6 d): 75%
- lipase activity ([1]; base formulation VI., component (a) 4.0 wt %, 10 d): 58%
- lipase activity ([1]; base formulation VI., component (a) 4.0 wt %, 15 d): 50%
- lipase activity ([1]; base formulation VI., component (a) 4.0 wt %, 20 d): 48%
- lipase activity ([1]; base formulation VI., component (a) 4.0 wt %, 25 d): 37%
- lipase activity ([1]; base formulation VI., component (a) 4.0 wt %, 30 d): 32%
- lipase activity ([1]; base formulation VI., component (a) 4.0 wt %, T0): 96%
- protease activity [2, 21]: 94%
- protease activity [2, 22]: 85%
- protease activity [2, 23]: 72%
- protease activity [2, 24]: 54%
- protease activity [2, 25]: 43%
- protease activity [2, 26]: 35%
- protease activity [2, 27]: 28%
- protease activity [2, 28]: 14%
- protease activity [2, 29]: 94%
- protease activity ([2]; base formulation V., component (a) 4.0 wt %, 1 d): 90%
- protease activity ([2]; base formulation V., component (a) 4.0 wt %, 3 d): 83%
- protease activity ([2]; base formulation V., component (a) 4.0 wt %, 6 d): 64%
- protease activity ([2]; base formulation V., component (a) 4.0 wt %, 10 d): 50%
- protease activity ([2]; base formulation V., component (a) 4.0 wt %, 15 d): 40%
- protease activity ([2]; base formulation V., component (a) 4.0 wt %, 20 d): 33%
- protease activity ([2]; base formulation V., component (a) 4.0 wt %, 25 d): 25%
- protease activity ([2]; base formulation V., component (a) 4.0 wt %, 30 d): 16%
- protease activity ([2]; base formulation V., component (a) 4.0 wt %, T0): 83%

SMILES: C[N+](C)(C)CCO.C[N+](C)(C)CCO.O=C([O-])CC(O)(CC(=O)O)C(=O)[O-] [C-(A.17)]
- lipase activity [1, 3]: 90%
- lipase activity [1, 4]: 80%
- lipase activity [1, 5]: 70%
- lipase activity [1, 6]: 53%
- lipase activity [1, 7]: 42%
- lipase activity [1, 8]: 38%
- lipase activity [1, 9]: 33%
- lipase activity [1, 10]: 29%
- lipase activity [1, 11]: 97%
- lipase activity [1, 12]: 93%
- lipase activity [1, 13]: 86%
- lipase activity [1, 14]: 74%
- lipase activity [1, 15]: 63%
- lipase activity [1, 16]: 51%
- lipase activity [1, 17]: 46%
- lipase activity [1, 18]: 38%
- lipase activity [1, 19]: 33%
- lipase activity [1, 20]: 96%
- protease activity [2, 3]: 90%
- protease activity [2, 4]: 81%
- protease activity [2, 5]: 70%
- protease activity [2, 6]: 49%
- protease activity [2, 7]: 38%
- protease activity [2, 8]: 30%
- protease activity [2, 9]: 23%
- protease activity [2, 10]: 12%
- protease activity [2, 11]: 98%
- protease activity [2, 21]: 94%
- protease activity [2, 22]: 83%
- protease activity [2, 23]: 71%
- protease activity [2, 24]: 53%
- protease activity [2, 25]: 42%
- protease activity [2, 26]: 34%
- protease activity [2, 27]: 27%
- protease activity [2, 28]: 14%
- protease activity [2, 29]: 92%
